{"source": "patent US10183032B2", "about": "“Methods for treating bacterial infection” (Ball State Innovation Corporation, priority 2012, dated 2019)", "key": {"[1]": {"system": "Human umbilical vein endothelial cells", "assay": "Cytotoxicity by propidium iodide exclusion, HUVEC", "assay_type": "cell-based"}, "Staphylococcus aureus": {"system": "Staphylococcus aureus", "assay": "S. aureus invasion in all cell types examined", "assay_type": "cell-based", "conditions": "HUVEC, HEK, U-87 MG, RAW and A549", "method": "Two days prior to the assay, TSB is inoculated with S. aureus (American Type Culture Collection #29213) and incubated overnight (225 rpm, 37° C.). Bacteria are subcultured the next day into fresh TSB. On the day of the assay, bacteria are pelleted (10000×g, 37° C., 3 min), are washed in saline, are pelleted as above, are resuspended in saline, then fluorescently labeled by incubation with rabbit anti-mouse IgG Alexa Fluor 488 (final concentration 8 μg/ml, RT, 20 min). Protein A, a S. aureus cell surface protein, avidly binds IgG thereby labeling the bacteria. Labeled bacteria are washed twice as above and are resuspended to 3×10^8 CFU/ml in saline. Host cells are incubated with the bacteria for 1 hour (1.2×10^8 CFU/ml for same-day recovery, 5×10^6 for recovery after 48 hours, 1.4×10^7 CFU/ml; 5% CO2, 37° C.). […] To detect the level of infection using flow cytometry, cells that have been infected with fluorescently-labeled bacteria are washed extensively with PBS, lifted from 96-well plate by incubation with trypsin, washed extensively in FACS buffer (2% BSA/0.1% sodium azide/PBS), fixed (FACS buffer containing 0.74% formaldehyde), and are counted using an Accuri flow cytometer (BD, Franklin Lakes, N.J.). They are also lifted from culture dishes using cell scrapers, pelleted, fixed (1% BSA/0.74% formaldehyde/PBS), and are counted using an Accuri flow cytometer. […]"}, "fibronectin": {"system": "fibronectin", "assay": "Fibronectin adhesion assay, HUVEC", "assay_type": "cell-based, human", "conditions": "ML 141 10 μM, 18-20 h; re-plated 2 h; vehicle 24±4%", "method": "FIG. 10C is a graph illustrating that ML 141 decreases cell adhesion to fibronectin-coated surface. HUVEC were pretreated as in FIGS. 10A and 10B, lifted from culture dishes using cell scrapers, and re-plated (2 h) onto non-tissue culture treated plates coated with fibronectin and blocked with bovine serum albumin. Following extensive washes, cells were recovered using trypsin and counted using an Accuri C6 flow cytometer (*p<0.05 by t-test on log-transformed data pooled from 2 independent experiments, n=8/treatment).\nHUVEC were plated and pretreated as described for the invasion assay. 96-well, non-tissue culture treated plates (Sarstedt, Newton, N.C.) were coated with fibronectin (20 μg/ml; 2 h; 37° C.), washed with PBS, and blocked with bovine serum albumin (2%, 30 min, RT). HUVEC were lifted from the 35 mm dishes using cell scrapers, 100 μl counted for normalization using the Accuri C6, and 200 μl transferred to the 96-well plate (2 h, 5% CO2, 37° C.). After extensive washes in PBS, cells were removed from the plate using trypsin, washed in FACS buffer, fixed, and 100 μl counted. These cell counts were normalized to those that had been taken prior to plating on the fibronectin-coated plate."}}, "data": [{"smiles": "COc1ccc(C2CC(c3ccccc3)=NN2c2ccc(S(N)(=O)=O)cc2)cc1", "note": "(stereo not shown) [ML 141, 4-[3-(4-methoxyphenyl)-5-phenyl-3,4-dihydropyrazol-2-yl]benzenesulfonamide]", "values": [{"measurement": "Cytotoxicity (in words)", "setting": "[1]; 10 μM, 18-20 h, Tables 4 and 5", "result": "not detected"}, {"measurement": "Mean fluorescence intensity (×10^4 ± SEM), Compound (10 μM)", "setting": "[1]; HUVEC pretreated 18-20 h", "result": "2.1 ± 0.3 ×10^4"}, {"measurement": "inhibition of invasion in all cell types examined", "setting": "Staphylococcus aureus", "result": "inhibited invasion"}, {"measurement": "adherence of HUVEC to fibronectin-coated plates", "setting": "fibronectin", "result": "14±2", "unit": "%"}]}]}
